# Measurements as given in patent US20250136553A1, “ACYLSULFONAMIDE KAT6A INHIBITORS” (Olema Pharmaceuticals, Inc., priority 2023, published 2025).
# Target: human-KAT6A (MYST domain 507-778 aa) (Homo sapiens (Human), UniProt Q92794)
# Assay: KAT6A biochemical assay (TR-FRET)
# Conditions: @ 1 μM; reported where IC50 could not be determined; read-out: Percent inhibition at specific concentration (KAT6A)
# Summary of the method: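 KAT6A MYST domain preincubated with compound 30 min at 25° C, then reacted 60 min at 25° C with 200 nM biotin-H4 peptide and 600 nM acetyl-CoA (final). Europium anti-acetyl-lysine/streptavidin-APC TR-FRET read (Ex 340, Em 615/665 nm); % inhibition from 665/615 ratio, IC50 by sigmoidal fit.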
# Sequence of human-KAT6A (MYST domain 507-778 aa) (Q92794 507-778): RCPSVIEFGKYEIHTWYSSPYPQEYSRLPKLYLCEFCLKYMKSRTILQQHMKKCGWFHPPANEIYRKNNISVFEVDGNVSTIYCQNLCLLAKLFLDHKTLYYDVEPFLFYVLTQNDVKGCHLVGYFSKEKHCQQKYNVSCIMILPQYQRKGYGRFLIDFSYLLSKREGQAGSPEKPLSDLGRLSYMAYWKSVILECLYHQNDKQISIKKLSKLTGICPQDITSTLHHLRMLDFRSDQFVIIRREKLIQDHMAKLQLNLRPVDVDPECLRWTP
row,inhibition at 1 µM [%],SMILES
1,45,"COc1ccc(C(C)(C)C)cc1S(=O)(=O)NC(=O)c1ccc(Cn2cccn2)n(C)c1=O [Compound 267, 6-((1H-Pyrazol-1-yl)methyl)-N-((5-(tert-butyl)-2-methoxyphenyl)sulfonyl)-1-methyl-2-oxo-1,2-dihydropyridine-3-carboxamide]"

# Same assay, conditions: TR-FRET; histone H4 peptide 200 nM, acetyl-CoA 600 nM; read-out: KAT6A IC50
row,IC50 [nM],SMILES
1,17,"COc1ccc(C2CC2)c(OC)c1S(=O)(=O)NC(=O)c1ccc(Cn2cccn2)c(OC)n1 [Compound 223, 5-((1H-pyrazol-1-yl)methyl)-N-((3-cyclopropyl-2,6-dimethoxyphenyl)sulfonyl)-6-methoxypicolinamide]"
2,11,"COc1cc(OC)c(S(=O)(=O)NC(=O)c2ccc(Cn3cccn3)c(OC)n2)c(OC)c1 [Compound 224, 5-((1H-pyrazol-1-yl)methyl)-6-methoxy-N-((2,4,6-trimethoxyphenyl)sulfonyl)picolinamide]"
3,10,"CCc1ccc(OC)c(S(=O)(=O)NC(=O)c2ccc(Cn3cccn3)c(OC)n2)c1OC [Compound 225, 5-((1H-pyrazol-1-yl)methyl)-N-((3-ethyl-2,6-dimethoxyphenyl)sulfonyl)-6-methoxypicolinamide]"
4,27,"COc1ccc(S(=O)(=O)NC(=O)c2ccc(Cn3cccn3)c(OC)n2)c(OC)c1 [Compound 226, 5-((1H-pyrazol-1-yl)methyl)-N-((2,4-dimethoxyphenyl)sulfonyl)-6-methoxypicolinamide]"
5,11,"COc1cccc(OCC(F)(F)F)c1S(=O)(=O)NC(=O)c1ccc(Cn2cccn2)c(OC)n1 [Compound 227, 5-((1H-pyrazol-1-yl)methyl)-6-methoxy-N-((2-methoxy-6-(2,2,2-trifluoroethoxy)phenyl)sulfonyl)picolinamide]"
6,21,"COc1cccc(OC)c1S(=O)(=O)NC(=O)c1ccc(Cn2cccn2)c(OC(F)(F)F)n1 [Compound 228, 5-((1H-pyrazol-1-yl)methyl)-N-((2,6-dimethoxyphenyl)sulfonyl)-6-(trifluoromethoxy)picolinamide]"
7,13,"COc1cccc(OC)c1S(=O)(=O)NC(=O)c1ccc(Cn2cccn2)c(C2CC2)n1 [Compound 229, 5-((1H-pyrazol-1-yl)methyl)-6-cyclopropyl-N-((2,6-dimethoxyphenyl)sulfonyl)picolinamide]"
8,11,"COc1ccc(C(C)(C)O)cc1S(=O)(=O)NC(=O)c1ccc(Cn2cccn2)c(OC)n1 [Compound 230, 5-((1H-pyrazol-1-yl)methyl)-N-((5-(2-hydroxypropan-2-yl)-2-methoxyphenyl)sulfonyl)-6-methoxypicolinamide]"
9,14,"COc1cccc(OC)c1S(=O)(=O)NC(=O)c1ccc(Cn2cccn2)c(C(F)F)n1 [Compound 231, 5-((1H-pyrazol-1-yl)methyl)-6-(difluoromethyl)-N-((2,6-dimethoxyphenyl)sulfonyl)picolinamide]"
10,95,"COc1ccccc1S(=N)(=O)NC(=O)c1ccc(Cn2cccn2)c(OC)n1 (centres unmarked) [Compound 232, 5-((1H-pyrazol-1-yl)methyl)-6-methoxy-N-(2-methoxyphenylsulfonimidoyl)picolinamide]"
11,94,"COc1nc(C(=O)NS(=O)(=O)c2cccc3c2CCC3)ccc1Cn1cccn1 [Compound 233, 5-((1H-pyrazol-1-yl)methyl)-N-((2,3-dihydro-1H-inden-4-yl)sulfonyl)-6-methoxypicolinamide]"
12,42,"COc1nc(C(=O)NS(=O)(=O)c2ccc3c(c2)CCC3)ccc1Cn1cccn1 [Compound 234, 5-((1H-pyrazol-1-yl)methyl)-N-((2,3-dihydro-1H-inden-5-yl)sulfonyl)-6-methoxypicolinamide]"
13,7,"COc1cccc(OC(F)(F)F)c1S(=O)(=O)NC(=O)c1ccc(Cn2cccn2)c(OC)n1 [Compound 235, 5-((1H-pyrazol-1-yl)methyl)-6-methoxy-N-((2-methoxy-6-(trifluoromethoxy)phenyl)sulfonyl)picolinamide]"
14,4,"COc1cccc(OC)c1S(=O)(=O)NC(=O)c1ccc(Cn2cccn2)c(C(F)(F)F)n1 [Compound 236, 5-((1H-pyrazol-1-yl)methyl)-N-((2,6-dimethoxyphenyl)sulfonyl)-6-(trifluoromethyl)picolinamide]"
15,44,"COc1nc(C(=O)NS(=O)(=O)c2cccc(C(C)(C)O)c2)ccc1Cn1cccn1 [Compound 237, 5-((1H-pyrazol-1-yl)methyl)-N-((3-(2-hydroxypropan-2-yl)phenyl)sulfonyl)-6-methoxypicolinamide]"
16,37,"COc1cc(OC)c(S(=O)(=O)NC(=O)c2ccc(Cn3cccn3)c(OC)n2)cc1Cl [Compound 238, 5-((1H-pyrazol-1-yl)methyl)-N-((5-chloro-2,4-dimethoxyphenyl)sulfonyl)-6-methoxypicolinamide]"

row,IC50 [nM],SMILES
1,12,"CCC(C)(O)c1ccc(OC)c(S(=O)(=O)NC(=O)c2ccc(Cn3cccn3)c(OC)n2)c1 (centres unmarked) [Compound 239, 5-((1H-pyrazol-1-yl)methyl)-N-((5-(2-hydroxybutan-2-yl)-2-methoxyphenyl)sulfonyl)-6-methoxypicolinamide]"
2,11,"COc1ccc(C(C)(O)C2CC2)cc1S(=O)(=O)NC(=O)c1ccc(Cn2cccn2)c(OC)n1 (centres unmarked) [Compound 240, 5-((1H-pyrazol-1-yl)methyl)-N-((5-(1-cyclopropyl-1-hydroxyethyl)-2-methoxyphenyl)sulfonyl)-6-methoxypicolinamide]"
3,10,"COc1ccc(Cl)c(OC)c1S(=O)(=O)NC(=O)c1ccc(Cn2cccn2)c(OC)n1 [Compound 241, 5-((1H-pyrazol-1-yl)methyl)-N-((3-chloro-2,6-dimethoxyphenyl)sulfonyl)-6-methoxypicolinamide]"
4,10,"COc1cc(OC)c(S(=O)(=O)NC(=O)c2ccc(Cn3cccn3)c(OC)n2)cc1Br [Compound 242, 5-((1H-pyrazol-1-yl)methyl)-N-((5-bromo-2,4-dimethoxyphenyl)sulfonyl)-6-methoxypicolinamide]"
5,23,"COc1cccc(OC)c1S(=N)(=O)NC(=O)c1ccc(Cn2cccn2)c(OC)n1 (centres unmarked) [Compound 243, 5-((1H-pyrazol-1-yl)methyl)-N-(2,6-dimethoxyphenylsulfonimidoyl)-6-methoxypicolinamide]"
6,14,"COc1cc(OC)c(S(=O)(=O)NC(=O)c2ccc(Cn3cccn3)c(OC)n2)cc1F [Compound 244, 5-((1H-pyrazol-1-yl)methyl)-N-((5-fluoro-2,4-dimethoxyphenyl)sulfonyl)-6-methoxypicolinamide]"
7,12,"COc1cccc(OCC2CC2)c1S(=O)(=O)NC(=O)c1ccc(Cn2cccn2)c(OC)n1 [Compound 245, 5-((1H-pyrazol-1-yl)methyl)-N-((2-(cyclopropylmethoxy)-6-methoxyphenyl)sulfonyl)-6-methoxypicolinamide]"
8,9,"COc1cc(OC)c(S(=O)(=O)NC(=O)c2ccc(Cn3cccn3)c(OC)n2)c2c1CCO2 [Compound 253, 5-((1H-pyrazol-1-yl)methyl)-N-((4,6-dimethoxy-2,3-dihydrobenzofuran-7-yl)sulfonyl)-6-methoxypicolinamide]"
9,115,"COc1ccc(S(=N)(=O)NC(=O)c2ccc(Cn3cccn3)c(OC)n2)c(OC)c1 (centres unmarked) [Compound 262, 5-((1H-pyrazol-1-yl)methyl)-N-(2,4-dimethoxyphenylsulfonimidoyl)-6-methoxypicolinamide]"
10,36,"COc1cc(OC)c(S(=N)(=O)NC(=O)c2ccc(Cn3cccn3)c(OC)n2)c(OC)c1 (centres unmarked) [Compound 263, 5-((1H-pyrazol-1-yl)methyl)-6-methoxy-N-(2,4,6-trimethoxyphenylsulfonimidoyl)picolinamide]"
11,14,"CCc1nc(C(=O)NS(=O)(=O)c2c(OC)cccc2OC)ccc1Cn1cccn1 [Compound 265, 5-((1H-Pyrazol-1-yl)methyl)-N-((2,6-dimethoxyphenyl)sulfonyl)-6-ethylpicolinamide]"
12,16,"CCc1c(OC)cc(OC)c(S(=O)(=O)NC(=O)c2ccc(Cn3cccn3)c(OC)n2)c1OC [Compound 268, 5-((1H-Pyrazol-1-yl)methyl)-N-((3-ethyl-2,4,6-trimethoxyphenyl)sulfonyl)-6-methoxypicolinamide]"
13,12,"COc1cc(C#Cc2cccnc2)cc(OC)c1S(=O)(=O)NC(=O)c1ccc(Cn2cccn2)c(OC)n1 [Compound 269, 5-((1H-Pyrazol-1-yl)methyl)-N-((2,6-dimethoxy-4-(pyridin-3-ylethynyl)phenyl)sulfonyl)-6-methoxypicolinamide]"
14,6,"[2H]C([2H])([2H])Oc1cc(OC([2H])([2H])[2H])c(S(=O)(=O)NC(=O)c2ccc(Cn3cccn3)c(OC)n2)c(OC([2H])([2H])[2H])c1 [Compound 270, 5-((1H-pyrazol-1-yl)methyl)-6-methoxy-N-((2,4,6-tris(methoxy-d3)phenyl)sulfonyl)picolinamide]"
15,37,"CCc1ccc(OC)c(S(=O)(=O)NC(=O)c2ncc(Cn3cccn3)c(OC)n2)c1 [Compound 271, 5-((1H-Pyrazol-1-yl)methyl)-N-((5-ethyl-2-methoxyphenyl)sulfonyl)-4-methoxypyrimidine-2-carboxamide]"
16,33,"COc1cc(OC)c(S(=O)(=O)NC(=O)c2ncc(Cn3cccn3)c(OC)n2)c(OC)c1 [Compound 272, 5-((1H-pyrazol-1-yl)methyl)-4-methoxy-N-((2,4,6-trimethoxyphenyl)sulfonyl)pyrimidine-2-carboxamide]"

row,SMILES,IC50 [nM]
1,"COc1cccc(OC2CCC2)c1S(=N)(=O)NC(=O)c1ccc(Cn2cccn2)c(OC)n1 (centres unmarked) [Compound 261, 5-((1H-pyrazol-1-yl)methyl)-N-(2-cyclobutoxy-6-methoxyphenylsulfonimidoyl)-6-methoxypicolinamide]",38
2,"COc1ccc(C(C)(C)CO)cc1S(=O)(=O)NC(=O)c1ccc(Cn2cccn2)c(OC)n1 [Compound 266, 5-((1H-Pyrazol-1-yl)methyl)-N-((5-(1-hydroxy-2-methylpropan-2-yl)-2-methoxyphenyl)sulfonyl)-6-methoxypicolinamide]",10
